Marks after values point to notes of the source that are not given here.
Key:
Cytochrome C (cytC) = molecular target: T1, Cytochrome C (cytC) (Equus caballus, UniProt P00004); assay: [Cp*Rh(bpy)H]+ catalyzed, formate driven reduction of Cytochrome C (absorption at 550 nm); type: biochemical, horse; details: for TF ([Cp*Rh(bpy)(H2O)]2+) / dc(CytC)red/dt: c(CytC) 31.2 μM, c(NaHCO2) 150 mM
T1 construct: cytC- (from horse heart, Fluka, Buchs Switzerland); purchased Fluka, Buchs Switzerland; host or cells: horse heart
Procedure: In a typical experiment potassium phosphate buffer (50 mM, pH 7.0, c(NaHCO2)=150 mM) is supplemented with cytC- (from horse heart, Fluka, Buchs Switzerland) and [Cp*Rh(bpy)(H2O)]^2+-stocksolutions to 1 ml final volume in a quartz kuvette and placed into a thermostatted (T=30° C.) UV-spectrophotometer (UNICAM). After addition of the components, the absorption at λ=550 nm is followed. Concentrations of reduced CytC were determined after background correction according to the law of Lamber-Beer utilizing a molar extinction coefficient for reduced CytC of […].
In another typical experiment, the reaction temperature was varied between 20 and 35° C.
To exclude stoichiometric interaction of [Cp*Rh(bpy)(H2O)]^2+ with cytC, in another experiment low c([Cp*Rh(bpy)(H2O)]^2+) were applied. In 50 ml degassed potassium phosphate buffer (50 mM, pH 7.0, c(NaHCO2)=150 mM) 10 μM ([Cp*Rh(bpy)(H2O)]^2+) were incubated with 80 μM cytC (FIG. 9).

[1] = molecular target: monooxygenase component of styrene monooxygenase (StyA) (Pseudomonas sp, UniProt O50214); assay: [Cp*Rh(bpy)(H2O)]2+ driven, StyA-catalyzed epoxidation / sulfoxidation; type: biochemical
Procedure: In a typical experimental setup 1 ml total volume was placed in an Eppendorf cup in a Thermomixer. The temperature was set to 37° C. and the reaction mixture was shaken thoroughly to ensure O2 intake.
Product formation was followed by reversed phase HPLC. The HPLC system (Merck) consisted of a D-7000 controller, L-7200 autosampler, L-7400 UV detector, L-7100 liquid chromatography pump and was fitted with a CC250/4 Nucleosil 100-5 C18 HD column. Samples were eluted under isocratic conditions using 60% acetonitrile and 40% water at a flow rate of 1 ml×min^−1. The elution pattern was monitored at 210 nm.
0.2 mM [Cp*Rh(bpy)(H2O)]^2+, 0.05 mM FAD, 0.005 mM FMN, 2 mM styrene, 280 U catalase, and 1.16 μM StyA in 50 mM potassium phosphate buffer with 150 mM sodium formate were incubated at 37° C. and agitation at 1500 rpm. At intervals, reactions were stopped by addition of one equivalent volume of cold acetonitrile. After centrifugation (15 min at 4° C. and 23000×g the upper phase was analyzed by reverse phase HPLC. Concentrations were corrected according to the phase ratio after centrifugation. Results from this experiment are given in FIG. 10 and Table 3.
0.2 mM [Cp*Rh(bpy)(H2O)]^2+, 0.02 mM FAD, 2 mM substrate, 200 U catalase, and 1.47 μM StyA in 50 mM potassium phosphate buffer with 150 mM sodium formate were incubated at 37° C. and agitation at 1500 rpm.
Styrene oxide was analyzed using a CC200/4 Nucleodex α-PM (Machery-Nagel). As eluent 60% methanol and 40% 6.2 mM TEAA in water was used at a flow rate of 0.7 ml×min^−1. 1,2-Dihydronaphthalene oxide, trans-β-Methylstyrene oxide, indene oxide, and methyl phenyl sulfoxide were extracted from the reaction buffer with one aliquot hexane und analyzed unsing normal phase HPLC with a CHIRACEL OB—H column and hexane:isopropanol 95:5 (9:1 for methyl phenyl sulfoxide) at a flow rate of 0.5 ml*min^−1 as mobile phase. As reference either authentical samples of racemic epoxides were used. (Table 4). […]

[2] = test system: 2-hydroxybiphenyl-3-monooxygenase (HbpA, E.C. 1.14.13.44); assay: Residual HbpA activity while incubation with [Cp*Rh(bpy)(H2O)]2+; type: biochemical
Procedure: HbpA-activities were determined by UV-spectroscopy according to literature methods by supplementing the experiment buffer with 0.1 mM NADH and observation of NADH-depletion at 340 nm for 1 minute, afterwards 2 mM of 2-hydroxybiphenyl were added and NADH depletion was measured for 1 minute. HbpA activity was determined as difference of both rates.
In a first experiment 0.11 U*ml^−1 HbpA of a partially enriched crude extract from recombinant E. coli overexpressing HbpA was incubated at 30° C. with 0, 0.02, 0.04, and 0.1 mM [Cp*Rh(bpy)(H2O)]^2+. In a second experiment c[Cp*Rh(bpy)(H2O)]^2+) was maintained at 0.02 mM whereas the HbpA content varied form 0.22 U*ml^−1 to 1.52 U*ml^−1.

[3] = test system: several dehydrogenases (HLADH, TBADH, etc.); details: previously reported [13]; cited from earlier work
[4] = T 20 °C, c([Cp*Rh(bpy)(H2O)]2+) 100 μM
[5] = T 30 °C, c([Cp*Rh(bpy)(H2O)]2+) 100 μM
[6] = T 35 °C, c([Cp*Rh(bpy)(H2O)]2+) 50 μM
[7] = FIG. 10: 37 °C, 0.2 mM [Cp*Rh(bpy)(H2O)]2+, 0.05 mM FAD, 2 mM styrene, 1.16 μM StyA
[8] = [Cp*Rh(bpy)] 0.02 mM, [HbpA] 0.22 U/ml
[9] = [Cp*Rh(bpy)] 0.02 mM, [HbpA] 0.44 U/ml
[10] = [Cp*Rh(bpy)] 0.02 mM, [HbpA] 1.52 U/ml

monooxygenase component of styrene monooxygenase (StyA), sequence (O50214 whole entry): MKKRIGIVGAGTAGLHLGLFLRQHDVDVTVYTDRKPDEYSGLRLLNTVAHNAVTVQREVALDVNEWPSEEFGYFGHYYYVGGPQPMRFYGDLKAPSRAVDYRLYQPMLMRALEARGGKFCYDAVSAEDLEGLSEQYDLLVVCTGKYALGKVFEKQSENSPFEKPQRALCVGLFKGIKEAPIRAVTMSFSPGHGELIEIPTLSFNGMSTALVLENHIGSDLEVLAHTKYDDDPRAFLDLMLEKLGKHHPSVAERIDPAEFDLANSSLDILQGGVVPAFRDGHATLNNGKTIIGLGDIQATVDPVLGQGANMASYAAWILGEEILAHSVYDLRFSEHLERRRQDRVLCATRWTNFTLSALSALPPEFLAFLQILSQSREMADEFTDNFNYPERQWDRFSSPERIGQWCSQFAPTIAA
T1 sequence (P00004 whole entry): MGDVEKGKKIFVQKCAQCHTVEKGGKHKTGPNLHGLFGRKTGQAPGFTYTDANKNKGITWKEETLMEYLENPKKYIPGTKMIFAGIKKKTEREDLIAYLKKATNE

Structure (SMILES): Cc1c(C)c(C)[c-](C)c1C.O.[Rh+3].c1ccc(-c2ccccn2)nc1 [[Cp*Rh(bpy)(H2O)]^2+]
- total turnover number (Cytochrome C (cytC); FIG. 9: 10 μM [Cp*Rh(bpy)(H2O)]2+, 80 μM cytC, 150 mM NaHCO2, 30 °C, degassed buffer, not optimized): 6
- TF ([Cp*Rh(bpy)(H2O)]2+) (Cytochrome C (cytC); [4]): 4 h⁻¹
- dc(CytC)red/dt (Cytochrome C (cytC); [4]): 0.4 mM * h^−
- TF ([Cp*Rh(bpy)(H2O)]2+) (Cytochrome C (cytC); [5]): 21 h⁻¹
- dc(CytC)red/dt (Cytochrome C (cytC); [5]): 2.1 mM * h^−
- TF ([Cp*Rh(bpy)(H2O)]2+) (Cytochrome C (cytC); [6]): 32 h⁻¹
- dc(CytC)red/dt (Cytochrome C (cytC); [6]): 1.6 mM * h^−
- Turnover frequencies as CytC reduction catalyst (Cytochrome C (cytC); depend on the reaction temperature (20-35 °C)): 4-32 turnovers per hour
- [Cp*Rh(bpy)(H2O)]2+ performance TF [1, 7]: 11.3 h⁻¹
- [Cp*Rh(bpy)(H2O)]2+ performance TTN [1, 7]: 5.3
- relative activity ([1]; calculated on FADH2 generation rate determined in the absence of StyA, FIG. 10 conditions): 16.1^c %
- effect of incubation on HbpA enzymatic activity [2]: complete loss of enzymatic activity
- HbpA activity at t = 60 min [2, 8]: 16%
- t25% [2, 8]: 39 min
- HbpA activity at t = 60 min [2, 9]: 42%
- t25% [2, 9]: 173 min
- HbpA activity at t = 60 min [2, 10]: 68%
- t25% [2, 10]: >1260 min
- t25% ([2]; [Hbpa] 0.11 U/ml, [Cp*Rh(bpy)] 0.02 mM, 30 °C): 70 min
- t25% ([2]; [Hbpa] 0.11 U/ml, [Cp*Rh(bpy)] 0.04 mM, 30 °C): 12 min
- t25% ([2]; [Hbpa] 0.11 U/ml, [Cp*Rh(bpy)] 0.1 mM, 30 °C): <5 min
- influence on the activity of several dehydrogenases [3]: no influence on the activity
